From patent publication US10703698B2, “Compounds which activate estrogen receptors and compositions and methods of using the same” (The Board of Trustees of the University of Illinois, priority 2016, dated 2020)

Legend:
LRRC54 gene = assay: LRRC54 (non-genomic gene) mRNA expression, qPCR; conditions: for LRRC54 (non-genomic gene) mRNA expression, in words: MCF-7 cells, 1 μM PaPE or 10 nM E2 for 4 h where stated, versus vehicle, E2 or compound 2
From the text: (§2) Quantitation of signal intensities is shown in panel at the right.

[1] = molecular target: T1, purified full-length human ERα (Homo sapiens, UniProt P03372); assay: competitive radiometric binding assay, relative binding affinity (RBA); conditions: relative to estradiol = 100
T1 construct: using purified full-length human ERα and ERβ
T1 sequence (P03372 1-595): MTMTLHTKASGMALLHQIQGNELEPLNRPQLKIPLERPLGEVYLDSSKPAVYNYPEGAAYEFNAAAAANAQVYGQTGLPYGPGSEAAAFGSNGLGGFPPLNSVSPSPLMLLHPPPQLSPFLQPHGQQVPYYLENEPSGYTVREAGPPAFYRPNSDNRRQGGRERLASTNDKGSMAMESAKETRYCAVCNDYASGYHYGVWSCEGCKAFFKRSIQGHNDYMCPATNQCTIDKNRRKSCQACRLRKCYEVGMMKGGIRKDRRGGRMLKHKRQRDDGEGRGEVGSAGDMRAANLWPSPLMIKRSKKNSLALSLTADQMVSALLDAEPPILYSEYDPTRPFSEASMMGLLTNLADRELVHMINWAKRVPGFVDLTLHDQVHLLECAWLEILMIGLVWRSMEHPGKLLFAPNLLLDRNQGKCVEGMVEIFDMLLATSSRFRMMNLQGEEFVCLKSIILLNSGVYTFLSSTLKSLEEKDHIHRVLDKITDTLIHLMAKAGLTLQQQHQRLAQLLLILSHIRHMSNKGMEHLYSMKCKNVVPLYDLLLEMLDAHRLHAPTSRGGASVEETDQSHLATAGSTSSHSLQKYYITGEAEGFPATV
From the text: (§1) FIG. 1. […] […]

[2] = molecular target: T2, purified full-length human ERβ (Homo sapiens, UniProt Q92731); assay: as above; conditions: relative to estradiol = 100
T2 construct: using purified full-length human ERα and ERβ
T2 sequence (Q92731 whole entry): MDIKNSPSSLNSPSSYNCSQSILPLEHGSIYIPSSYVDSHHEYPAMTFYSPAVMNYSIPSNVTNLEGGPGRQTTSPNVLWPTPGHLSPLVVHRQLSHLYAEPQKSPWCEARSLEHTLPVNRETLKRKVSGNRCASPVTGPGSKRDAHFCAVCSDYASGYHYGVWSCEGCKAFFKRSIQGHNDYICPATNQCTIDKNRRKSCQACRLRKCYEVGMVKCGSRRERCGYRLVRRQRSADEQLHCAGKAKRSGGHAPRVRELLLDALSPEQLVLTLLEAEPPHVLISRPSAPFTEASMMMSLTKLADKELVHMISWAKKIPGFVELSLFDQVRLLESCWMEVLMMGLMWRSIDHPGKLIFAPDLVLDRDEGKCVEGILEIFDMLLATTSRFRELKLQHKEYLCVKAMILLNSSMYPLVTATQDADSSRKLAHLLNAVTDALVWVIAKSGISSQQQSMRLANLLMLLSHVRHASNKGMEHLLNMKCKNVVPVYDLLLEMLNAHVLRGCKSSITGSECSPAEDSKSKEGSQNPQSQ
From the text: as §1

PgR gene = assay: PgR (genomic gene) mRNA expression, qPCR; conditions: MCF-7 cells; 1 μM PaPE or 10 nM E2 for 4 h where stated; versus vehicle or E2
From the text: as §2

| SMILES | LRRC54 (non-genomic gene) mRNA expression, in words (LRRC54 gene) | PgR (genomic gene) mRNA expression, in words (PgR gene) | further results |
| --- | --- | --- | --- |
| Cc1cc(-c2ccc3c(c2)CC[C@@H]3O)cc(C)c1O [Compound 3, S-5-(4-hydroxy-3,5-dimethylphenyl)-2,3-dihydro-1H-inden-1-ol] | equivalent activities |  |  |
| Cc1cc(-c2ccc3c(c2)CC[C@H]3O)cc(C)c1O [Compound 4, R-5-(4-hydroxy-3,5-dimethylphenyl)-2,3-dihydro-1H-inden-1-ol] | less non-genomic gene activity |  |  |
| COc1c(C)cc(-c2ccc3c(c2)CCC3O)cc1C (centres unmarked) [Compound 5, 5-(4-methoxy-3,5-dimethylphenyl)-2,3-dihydro-1H-inden-1-ol] | marked loss of this non-genomic activity |  |  |
| Cc1cc(-c2ccc3c(c2)CCC3=O)cc(C)c1O [Compound 6, 5-(4-hydroxy-3,5-dimethylphenyl)-2,3-dihydro-1H-inden-1-one] | non-genomic activity is lost |  |  |
| Cc1cc(-c2ccc3c(c2)CCC3Cl)cc(C)c1O (centres unmarked) [Compound 8, 4-(1-chloro-2,3-dihydro-1H-inden-5-yl)-2,6-dimethylphenol] | stimulation of the nongenomic gene (LRRC54), but to a lesser degree than compound 2 |  | LRRC54 stimulation compared to E2 (LRRC54 gene; FIG. 14): 50%; ERα RBA (relative binding affinity) [1]: 0.001 ± 0; ERβ RBA (relative binding affinity) [2]: 0.006 ± 0.001 |
| Cc1cc(-c2ccc3c(c2)CCC3C#N)cc(C)c1O (centres unmarked) [Compound 9, 5-(4-hydroxy-3,5-dimethylphenyl)-2,3-dihydro-1H-indene-1-carbonitrile] | no non-genomic activity |  | ERα RBA (relative binding affinity) [1]: 0.003 ± 0.001; ERβ RBA (relative binding affinity) [2]: 0.002 ± 0.001 |
| Cc1cc(-c2ccc3c(c2)CCC3)cc(C)c1O [Compound 13, 4-(2,3-dihydro-1H-inden-5-yl)-2 6-dimethylphenol] | some non-genomic activity | strongly stimulate the genomic gene PgR |  |
| Cc1cc(-c2ccc3c(c2)CC=C3)cc(C)c1O [Compound 14, 4-(1H-inden-6-yl)-2,6-dimethylphenol] |  | strongly stimulate the genomic gene PgR |  |
| Cc1cc(-c2ccc3c(c2)C=CC3=O)cc(C)c1O [Compound 18] | increases expression of both the non-genomic and genomic genes | increases expression of both the non-genomic and genomic genes |  |
| C#CC1(O)CCc2cc(-c3cc(C)c(O)c(C)c3)ccc21 (centres unmarked) [Compound 19, 1-ethynyl-5-(4-hydroxy-3,5-dimethylphenyl)-2,3-dihydro-1H-inden-1-ol] |  |  | ERα RBA (relative binding affinity) [1]: 0.004 ± 0.001; ERβ RBA (relative binding affinity) [2]: <0.001 |
| COC1CCc2cc(-c3cc(C)c(O)c(C)c3)ccc21 (centres unmarked) [Compound 22, 4-(1-methoxy-2,3-dihydro-1H-inden-5-yl)-2,6-dimethylphenol] | stimulation of both genomic and nongenomic gene expression is lost | stimulation of both genomic and nongenomic gene expression is lost |  |
| Cc1cc(-c2ccc(CO)cc2)cc(C)c1O [Compound 23] |  |  | ERα RBA (relative binding affinity) [1]: 0.002 ± 0.001; ERβ RBA (relative binding affinity) [2]: 0.002 ± 0.001 |
| Cc1cc(-c2ccc(CO)c(F)c2)cc(C)c1O [Compound 25, 3′-fluoro-4′-(hydroxvmethyl)-3,5-dimethyl-[1,1′-biphenyl]-4-ol] |  |  | ERα RBA (relative binding affinity) [1]: 0.003 ± 0; ERβ RBA (relative binding affinity) [2]: 0.009 ± 0 |
| Cc1cc(-c2ccc(CO)cc2C(F)(F)F)cc(C)c1O [Compound 28] |  |  | ERα RBA (relative binding affinity) [1]: 0.008 ± 0.002; ERβ RBA (relative binding affinity) [2]: 0.013 ± 0.002 |
| COC1CC(=O)c2ccc(-c3cc(C)c(O)c(C)c3)cc21 (centres unmarked) [Compound 29] |  | did not activate PgR above that of vehicle (veh.) |  |
| CC(O)c1ccc(-c2ccccc2)cc1 (centres unmarked) [Compound 31] | both activities are lost | both activities are lost |  |
| Cc1cc(-c2ccc(O)cc2)cc(C)c1O [Compound 35] | principally loss of LRRC54 gene expression |  | ERα RBA (relative binding affinity) [1]: 0.011 ± 0.003; ERβ RBA (relative binding affinity) [2]: 0.755 ± 0.20 |

| SMILES | LRRC54 (non-genomic gene) mRNA expression, in words (LRRC54 gene) | PgR (genomic gene) mRNA expression, in words (PgR gene) | further results |
| --- | --- | --- | --- |
| Cc1cc([C@H]2CC[C@@]3(C)[C@H](CC[C@@H]3O)C2)cc(C)c1O [Compound 43, (1S,3aR,5S,7aS)-5-(4-hydroxy-3,5-dimethylphenyl)-7a-methyloctahydro-1H-inden-1-ol] |  |  | ERα RBA (relative binding affinity) [1]: <0.001; ERβ RBA (relative binding affinity) [2]: 0.001 |
| Cc1cc(-c2ccc(CCBr)cc2)cc(C)c1O [Compound 46] | preferentially stimulate LRRC54 better than E2 |  |  |
| Cc1cc(-c2cccc(CCCO)c2)cc(C)c1O [Compound 47, 3′-(3-hydroxypropyl)-3,5-dimethyl-[1,1′-biphenyl]-4-ol] | good stimulation of the non-genomic LRRC54 | stimulate expression of genomic PgR genes well |  |
| Cc1cc(-c2ccc(CCCO)cc2)cc(C)c1O [Compound 48, 4′-(3-hydroxypropyl)-3,5-dimethyl-[1,1′-biphenyl]-4-ol] |  | stimulate expression of genomic PgR genes well |  |
| Cc1cc(-c2cccc(CC(=O)O)c2)cc(C)c1O [Compound 49] | behaves like vehicle | behaves like vehicle |  |
| Cc1cc(-c2ccc3c(c2)CC(F)C3O)cc(C)c1O (centres unmarked) [Compound 50, 2-fluoro-5-(4-hydroxy-3,5-dimethylphenyl)-2,3-dihydro-1H-inden-1-ol] | stimulate both non-genomic LRRC54 and genomic PgR gene expression close to the level that of E2 | stimulate both non-genomic LRRC54 and genomic PgR gene expression close to the level that of E2 |  |
| Cc1cc(-c2ccc3c(c2)CC(Br)C3O)cc(C)c1O (centres unmarked) [Compound 51, 2-bromo-5-(4-hydroxy-3,5-dimethylphenyl)-2,3-dihydro-1H-inden-1-ol] | stimulate both non-genomic LRRC54 and genomic PgR gene expression close to the level that of E2 | stimulate both non-genomic LRRC54 and genomic PgR gene expression close to the level that of E2 |  |
| Cc1cc(-c2ccc3c(c2)CC(Br)(Br)C3O)cc(C)c1O (centres unmarked) [Compound 52, 2,2-dibromo-5-(4-hydroxy-3,5-dimethylphenyl)-2,3-dihydro-1H-inden-1-ol] | little expression of both genes | little expression of both genes |  |
| Cc1cc(-c2ccc3cc(O)ccc3c2)cc(C)c1O [Compound 53] | gene expression pattern equivalent to that of estradiol (E2) | gene expression pattern equivalent to that of estradiol (E2) |  |
| COCc1cc(-c2ccc3c(c2)CCC3O)cc(C)c1O (centres unmarked) [Compound 54, 5-(4-hydroxy-3-methyl-5-methoxymethylphenyl)-2,3-dihydro-1H-inden-1-ol] | little expression of both genes | little expression of both genes |  |
| OCc1cc(-c2ccc3c(c2)CCC3O)cc(CO)c1O (centres unmarked) [Compound 58, 5-(4-hydroxy-3,5-(dihydroxymethyl)phenyl)-2,3-dihydro-1H-inden-1-ol] | increases the expression of the non-genomic LRRC54 gene |  |  |
| OCc1cc(-c2ccccc2)ccc1O [Compound 61, 4-Hydroxy-3-hydroxymethyl-biphenyl] | a little better than vehicle (Veh.) | not at all |  |
| Cc1cc(-c2cc(C)c(O)c(C)c2)cc(C)c1O [Compound 65, 4,4′-Dihydroxy-3,3′,5,5′-tetramethylbiphenyl] | greatly suppresses LRRC54 gene expression | equivalent to that of vehicle (Veh.) |  |
| Cc1cc(C(=C2C3CC4CC(C3)CC2C4)c2ccc(Br)cc2)cc(C)c1O [Compound 66] |  | stimulate PgR gene selectively |  |
| Cc1cc(C(=C2CCCCC2)c2ccc(Br)cc2)cc(C)c1O [Compound 67] |  | stimulate PgR gene selectively |  |
| Cc1cc(-c2cc(C)c(O)c(CO)c2)cc(C)c1O [Compound 68, 3-(Hydroxymethyl)-3′,5,5′-trimethyl-[1,1′-biphenyl]-4,4′-diol] | suppresses LRRC54 gene expression compared to that of the parent compound 59 |  |  |
| Cc1cc(-c2ccc(O)c(CCO)c2)cc(C)c1O [Compound 69, 3′-(2-hydroxyethyl)-3,5-dimethyl-[1,1′-biphenyl]-4,4′-diol] | does not improve the non-genomic LRRC54 gene response |  |  |
